Paper PMC7076525, “Pharmacokinetics and Intestinal Metabolism of Compound K in Rats and Mice” (Pharmaceutics, 2020)
≈ marks a conversion by molar mass, not a printed value. Where “and” joins values, the source holds several entries; their conditions need not be identical. Identical values can stand only once. Like-named read-outs stand apart in the source and are kept apart here.

What was measured:
[1] = Pharmacokinetics, biliary excretion and metabolism of compound K in bile cannulated and non-bile cannulated rats; assay type: in vivo, SD rats; conditions: for AUC(0-inf) / half-life / AUC(0-t) / C0: SD, rat, plasma, iv; for AUC(0-t): read-out: AUC12 h; for C0: read-out: C0 (initial plasma concentration)
Procedure: SD rats were randomly divided into two groups: the non-bile cannulated control group and the bile cannulated group. For the bile cannulated rats, the femoral artery, femoral vein, and bile duct were cannulated with polyethylene tubes (PE-50 and PE-10; Jungdo, Seoul, Korea) under light anesthesia with isoflurane. For the control group, the femoral artery and femoral vein were cannulated with PE-50. Compound K was injected intravenously via the femoral vein at 2 mg/kg. Blood samples (approximately 200 µL) were collected from the femoral artery at 0, 0.25, 0.5, 1, 2, 4, and 8 h after the compound K injection. After each blood sampling, normal saline was injected into the femoral vein to compensate for blood loss. Bile samples were collected every 2 h for a total of 12 h. The blood samples were centrifuged at 16,000× g for 10 min, and 50 μL aliquots of plasma and 50 μL aliquots of bile were stored at −80 °C until the compound K analysis. In the non-bile cannulated rats, the complete contents of the entire gastrointestinal tract were collected using a […] filled with 30 mL pre-warmed saline. The contents were homogenized with tissue homogenizer, and 50 μL aliquots of intestinal fecal homogenates were stored at −80 °C until the analysis. The 50 μL samples of plasma, urine, 10% fecal homogenates, bile, and intestinal fecal homogenates were each mixed with 60 μL of IS (20 ng/mL 13C-caffeine in water) and 600 μL of methyl tert-butyl ether (MTBE). The mixtures were vortexed vigorously for 10 min and centrifuged at 16,000× g for 5 min. After centrifugation, the samples were frozen at −80 °C for 2 h. […] The residue was reconfigured with 200 μL of 80% methanol consisting of 0.1% formic acid, and a 10 μL aliquot was injected into the liquid chromatography–tandem mass spectrometry (LC–MS/MS) system. Compound K and PPD concentrations were analyzed using a modified LC-MS/MS method of Jin et al. with an Agilent 6430 triple quadrupole LC-MS/MS system (Agilent, Wilmington, DE, USA). […] The mobile phase consisted of 0.1% formic acid in water (8%) and 0.1% formic acid in methanol (92%) at a flow rate of 0.15 mL/min. Pharmacokinetic parameters were estimated using non-compartmental methods (WinNonlin version 2.0, Pharsight Co., Certara, NJ, USA).

[2] = set-up: method as in PMID 28955238; conditions: humans, cited from earlier work
[3] = set-up: method as in PMID 16302287, PMID 32148404, PMID 30013338, PMID 26680316; conditions: cited from earlier work
Caco-2 cells = tested on: Caco-2 cells; set-up: method as in PMID 16302287, PMID 32148404, PMID 30013338, PMID 26680316; conditions: cited from earlier work
[4] = Pharmacokinetic study after intravenous compound K (2 mg/kg) in SD rats: plasma, feces, urine; conditions: for Recovery48 h Feces: over 48 h (Table 4)
[5] = Pharmacokinetic study after intravenous compound K (2 mg/kg) in ICR mice: plasma, feces, urine
[6] = Tissue distribution study after intravenous compound K (2 mg/kg) in SD rats; assay type: in vivo; conditions: compound K IV 2 mg/kg
Procedure: (§1) ICR mice and SD rats received compound K intravenously at a single dose of 2 mg/kg via tail vein and were returned to the metabolic cage with water and chow ad libitum. The animals were euthanized and blood samples (approximately 200 µL) were collected from the abdominal artery at 0.17, 0.5, 2, 4, 8, and 24 h after intravenous injection. The liver, kidney, brain, heart, lung, spleen, and testis were immediately excised, gently washed with ice-cold saline, and weighed. The tissue samples were homogenized with 4 volumes of saline. Aliquots (50 μL) of plasma and 20% tissue homogenates were stored at –80 °C until the analysis of compound K.
(§2) The plasma samples and 20% tissue homogenates samples were each mixed with 60 μL of IS (20 ng/mL 13C-caffeine in water) and 600 μL of MTBE. The mixtures were vortexed vigorously for 10 min and centrifuged at 16,000× g for 5 min. After centrifugation, the samples were frozen at −80 °C for 2 h. The upper layer was transferred to a clean tube and evaporated to dryness under a nitrogen stream. The residue was reconfigured with 200 μL of 80% methanol consisting of 0.1% formic acid, and a 10 μL aliquot was injected into the LC-MS/MS system.
(§3) Compound K and PPD concentrations were analyzed using a modified LC-MS/MS method of Jin et al. with an Agilent 6430 triple quadrupole LC-MS/MS system (Agilent, Wilmington, DE, USA). […]

[7] = Tissue distribution study after intravenous compound K (2 mg/kg) in ICR mice; assay type: in vivo; conditions: compound K IV 2 mg/kg
Procedure: as §1, §2, §3

Oatp transporters [8] = assay: Inhibition of hepatic uptake of compound K by rifampin pre-treatment in SD rats; assay type: in vivo; conditions: rifampin 20 mg/kg PO 1 h before compound K IV 2 mg/kg, 0.5 and 2 h
Procedure: (§4) To investigate the effect of rifampin (a representative inhibitor of the organic anion-transporting polypeptide (Oatp) transporters) on the hepatic distribution of compound K, ICR mice and SD rats were randomly divided into either control or rifampin groups. The rifampin group was orally administered with rifampin solution (20 mg/kg, dissolved in DMSO: saline = 2:8, v/v) and the control group received only the vehicle via oral gavage. One hour after rifampin treatment, mice and rats received compound K intravenously at a single dose of 2 mg/kg via tail vein. The animals were euthanized and blood samples (approximately 200 µL) were collected from the abdominal artery at 0.5 and 2 h after intravenous injection. The liver tissues were immediately excised, gently washed with ice-cold saline, and homogenized with 4 volumes of saline. Aliquots (50 μL) of plasma and 20% liver homogenates were stored at −80 °C until the analysis of compound K.
as §2, with “The residue was reconfigured with 200 μL of 80% methanol consisting of 0.1% formic acid, and a 10 μL aliquot was injected into the LC-MS/MS system.” left out

Oatp transporters [9] = assay: Inhibition of hepatic uptake of compound K by rifampin pre-treatment in ICR mice; assay type: in vivo; conditions: rifampin 20 mg/kg PO 1 h before compound K IV 2 mg/kg, 0.5 and 2 h
Procedure: as §4
as §2, with “The residue was reconfigured with 200 μL of 80% methanol consisting of 0.1% formic acid, and a 10 μL aliquot was injected into the LC-MS/MS system.” left out

[10] = cited from earlier work
[11] = set-up: method as in PMID 16302287; conditions: rats, cited from earlier work
P-glycoprotein (P-gp) = tested on: P-glycoprotein (P-gp); set-up: method as in PMID 22584255; conditions: single oral dose 10 mg/kg; cited from earlier work
[12] = set-up: method as in PMID 22584255, PMID 30013338, PMID 26680316; conditions: cited from earlier work
[13] = single oral 200 mg compound K tablet, fasting
[14] = rat, after compound K IV 2 mg/kg
[15] = rats, after compound K IV 2 mg/kg
[16] = ICR, mouse, plasma, iv, 2 mg/kg
[17] = mice, after compound K IV 2 mg/kg
[18] = mouse, after compound K IV 2 mg/kg, over 48 h (Table 4)
[19] = 2 mg/kg, bile cannulated rat, compound K IV 2 mg/kg
[20] = 2 mg/kg, non-bile cannulated rat, compound K IV 2 mg/kg

With `CC(C)=CCCC(C)(O)C1CCC2(C)C1C(O)CC1C3(C)CCC(O)C(C)(C)C3CCC12C` [PPD, 20(S)-protopanaxadiol] the “presence in bile samples collected over 12 h” value ([1]; bile-cannulated rats, after compound K IV 2 mg/kg) was “without PPD”, the “detection in plasma samples” value ([1]; bile-cannulated rats, after compound K IV 2 mg/kg, 2 mg/kg) was “could not be detected” and the “detection in plasma samples at 8 h” value ([1]; control rats (non-bile cannulated), after compound K IV 2 mg/kg, not present in 2 h sample) was “detected”. For the same molecule, the “amount in intestinal fecal samples, 12 h compared to 2 h” value ([1]; rats without bile cannulation, after compound K IV 2 mg/kg) was “greater in the 12 h samples compared to the 2 h samples”, the Cmax [2, 13] was 5.7 ng/mL and the Tmax [2, 13] was 24.5 h. The “AUC ratio of PPD to compound K” value ([2]; single oral 200 mg compound K tablet) was 0.04, the LogP value [3] was 5.53 and the permeability (Caco-2 cells) was 1.15e-06 cm/s. The concentration at 48 h ([4]; SD, rat, plasma, iv, 2 mg/kg) was less than 5 ng/mL, the “recovery of PPD relative to that of compound K in feces” value ([4]; rat feces, after compound K IV 2 mg/kg) was 3.4 fold and the “metabolic ratio (PPD to compound K ratio) in plasma” value ([4]; rat plasma, after compound K IV 2 mg/kg) was 0.2–1.6. The “Recovery48 h Feces” value [4, 14] was 46.6 ± 4.9 % of Dose, the “detection in plasma and fecal samples” value [4, 15] was “detected” and the “detection in urine samples” value [4, 15] was “not detected”. The concentration at 48 h [5, 16] was less than 5 ng/mL, the “detection in plasma and fecal samples” value [5, 17] was “detected” and the “detection in urine samples” value [5, 17] was “not detected”. For the same molecule, the “recovery of PPD relative to that of compound K in feces” value ([5]; mouse feces, after compound K IV 2 mg/kg) was 1.2 fold, the “metabolic ratio (PPD to compound K ratio) in plasma” value ([5]; mouse plasma, after compound K IV 2 mg/kg) was 0.02–0.08 and the “Recovery48 h Feces” value [5, 18] was 34.4 ± 5.8 % of Dose.

With `CC(C)=CCCC(C)(OC1OC(CO)C(O)C(O)C1O)C1CCC2(C)C1C(O)CC1C3(C)CCC(O)C(C)(C)C3CCC12C` [compound K, 20-O-beta-(D-Glucopyranosyl)-20(S)-protopanaxadiol] the “AUC ratios of other tissues (kidney, heart, lung, pancreas, testis, brain) to plasma” value [6] was “much lower than the liver/plasma AUC ratio”, the Kp ([6]; male, SD, rat, liver (relative to plasma), 0.17-24 h, read-out: liver to plasma AUC ratio) was 11.1 and the “AUC ratios of other tissues (kidney, heart, lung, pancreas, testis, brain) to plasma” value [7] was “much lower than the liver/plasma AUC ratio”. The Kp ([7]; male, ICR, mouse, liver (relative to plasma), 0.17-24 h, read-out: liver to plasma AUC ratio) was 16.7, the “liver to plasma concentration ratios with rifampin pre-treatment versus control” value (Oatp transporters [8]) was “decreased” and the “plasma concentration of compound K with rifampin pre-treatment versus control” value (Oatp transporters [8]) was “increased”. The “liver to plasma concentration ratios with rifampin pre-treatment versus control” value (Oatp transporters [9]) was “decreased”, the “plasma concentration of compound K with rifampin pre-treatment versus control” value (Oatp transporters [9]) was “increased” and the AUC(0-inf) [1, 19] was 235 ± 126 ng·h/mL. The half-life [1, 19] was 0.78 ± 0.11 h, the AUC(0-t) [1, 19] was 211 ± 87.3 ng·h/mL and the C0 [1, 19] was 436 ± 326 ng/mL. The AUC(0-inf) [1, 20] was 517 ± 249 ng·h/mL, the half-life [1, 20] was 2.4 ± 0.61 h and the AUC(0-t) [1, 20] was 496 ± 253 ng·h/mL. The C0 [1, 20] was 451 ± 192 ng/mL, the “Bile12 h (biliary excretion)” value ([1]; bile cannulated rat, compound K IV 2 mg/kg, bile collected for 12 h) was 39.1 ± 5.7 % of dose and the elimination constant ([1]; bile-cannulated rats, one-compartment model, estimated using 5 points, r^2 0.92) was 0.90 h⁻¹. The elimination constant ([1]; non-bile cannulated (control) rats, estimated using 3 points, r^2 0.94) was 0.29 h⁻¹, the “increase of AUC by high-fat meal compared with fasting group” value ([2]; 200 mg compound K tablet) was 2.2 fold and the “increase of Cmax by high-fat meal compared with fasting group” value ([2]; 200 mg compound K tablet) was 2.0 fold. For the same molecule, the Cmax ([10]; 12 Japanese subjects, single oral fermented ginseng tablet (274.4 mg total; 2.2 mg as compound K)) was 41.5 ng/mL, the Cmax ([10]; subjects given non-fermented Korean red ginseng extract (3 g total; 0 mg as compound K)) was 3.2 to 24.8 ng/mL and the “mean Cmax” value ([10]; subjects given oral fermented Korean red ginseng (3 g total; 10.9 mg as compound K)) was 254.5 ng/mL. The AUC increase ([11]; intravenous injection, dose range 1–10 mg/kg (dose increase 10-fold)) was 11.6 fold, the AUC increase ([11]; oral administration, dose range 5–20 mg/kg (dose increase four-fold)) was 75.8 fold and the “AUC increase in P-gp knock-out mice compared to wild-type mice” value (P-glycoprotein (P-gp)) was 23.5 fold. The LogP value [3] was 3.85, the permeability (Caco-2 cells) was 0.5–2 × 10^−6 cm/s and the aqueous solubility [12] was 33 µg/mL (≈ 53 µM). For the same molecule, the AUC(0-inf) ([4]; SD, rat, plasma, iv, 2 mg/kg) was 670 ± 284 ng·h/mL, the AUC(0-t) ([4]; SD, rat, plasma, iv, 2 mg/kg) was 639 ± 299 ng·h/mL and the C0 ([4]; SD, rat, plasma, iv, 2 mg/kg) was 75.3 ± 23.3 ng/mL. It also gave an MRT ([4]; SD, rat, plasma, iv, 2 mg/kg) of 8.9 ± 0.4 h, a Vd ([4]; SD, rat, plasma, iv, 2 mg/kg) of 31.8 ± 3.1 L/kg and a clearance ([4]; SD, rat, plasma, iv, 2 mg/kg) of 59 ± 21.8 mL/min/kg. The half-life ([4]; SD, rat, plasma, iv, 2 mg/kg) was 7.3 ± 0.4 h, the “Recovery48 h Feces” value [4, 14] was 13.8 ± 7.1 % of Dose and the “Feces48 h (fecal recovery)” value ([4]; rat, compound K IV 2 mg/kg, 48 h, 2 mg/kg) was 13.8 % of dose and ~13.8 ± 7.1 % of dose. For the same molecule, the “CL and Vd, fold larger in rats than in mice” value ([4]; rats versus mice, compound K IV 2 mg/kg) was “about five-fold larger”, the AUC(0-t) [5, 16] was 3760 ± 1640 ng·h/mL and the C0 [5, 16] was 400 ± 137 ng/mL. For the same molecule, the MRT [5, 16] was 11.8 ± 2 h, the Vd [5, 16] was 7.08 ± 2.6 L/kg and the clearance [5, 16] was 10.4 ± 4.9 mL/min/kg. For the same molecule, the half-life [5, 16] was 11.4 ± 1.5 h, the “Recovery48 h Feces” value [5, 18] was 28.4 ± 5.9 % of Dose and the “Recovery48 h Urine” value [5, 18] was 0.02 ± 0.01 % of Dose.
